Earlier results on 12 compounds are cited in Sander's compilation of Henry's law constants (doi:10.1080/01483918608076621).

A short description of this series: Henry solubility constant Hcp at 298.15 K (mol/(m3 Pa)). Conditions: reference: Janini and Quaddora (1986); cited value.

Regarding `CCCC(C)=O` [2-pentanone], the “Henry solubility constant Hcp” value was 0.091.

With `Cc1cccc(O)c1` [1-hydroxy-3-methylbenzene], the “Henry solubility constant Hcp” value is 6.1.

Consider `CCCC=O` [butanal], for which the “Henry solubility constant Hcp” value is 0.054.

Take `CCC(=O)CC` [3-pentanone]: the “Henry solubility constant Hcp” value was 0.2.

For `Cc1ccccc1O` [1-hydroxy-2-methylbenzene], the “Henry solubility constant Hcp” value was 2.6.

As to `CCCOC(C)=O` [propyl ethanoate], the “Henry solubility constant Hcp” value was 0.044.

As to `CCCCOC(C)=O` [butyl ethanoate], the “Henry solubility constant Hcp” value is 0.035.

Regarding `Cc1ccc(O)cc1` [1-hydroxy-4-methylbenzene], the “Henry solubility constant Hcp” value is 5.2.

On to `CCCCCC(C)=O` [2-heptanone], for which the “Henry solubility constant Hcp” value is 0.35.

Regarding `CCOC(C)=O` [ethyl ethanoate], the “Henry solubility constant Hcp” value was 0.047.

`CC(C)=O` [propanone]: the “Henry solubility constant Hcp” value was 0.03.

Turning to `CC(=O)OC(C)C` [2-propyl ethanoate], the “Henry solubility constant Hcp” value is 0.029.
